Data published in patent publication US20040006043A1, “Methods, pharmaceutical compositions and pharmaceutical kits for enhancing the therapeutic efficiency of cancer chemotherapeutic agents” (RAMOT UNIVERSITY AUTHORITY FOR APPLIED RESEARCH & …, priority 2002, published 2004).

Experiments:
C6 cells = settings: doxorubicin efflux, absence of a chemosensitizer
Experimental: Cells were grown in monolayers as described above. Several days prior to an experiment the cells (at a density in the range of 5×10^4-5×10^5 cells/ml) were seeded into 6 multiwell culture plates. The experiments were performed when the cells reached confluency.
At the end of the incubation the media was removed and the cells were incubated with “drug free media”, which consisted of either buffer alone, for cells loaded with drug only, or buffer that contained the chemosensitizer used at the same dose as in the incubation, for the cells loaded with the drug and the chemosensitizer. This replacement of the loading with the “drug free media” was performed in order to create the driving force for drug efflux from the cell into that external media. At designated periods (time points), the external media was collected and thereafter replaced by fresh “drug free media”, in order to maintain a unidirectional flux, from the cell out. The drug concentration was measured in each of the collected media, and in the cells at the end of the experiment.

[1] = Lithium 1 mM; cited from earlier work
C26 cells = assay: Survival of BALB/c mice inoculated with C26 tumor cells; format: in vivo; settings: C26 cells in right-hind foot pad
Experimental: BALB/c mice, female, 8 weeks old at the initiation of experiments were tested. Experiments were performed with 35 mice that were divided into 5 groups.
Mitomycin C (MMC), injection dose of 10 mg/Kg body.
C26 cells (originating from mouse colon carcinoma) were grown in cell culture flask essentially as described above under the in vitro experiments. At day 0 of the experiment, the cells were harvested, washed several times with PBS and at the final wash with Hank's buffer, counted and immediately injected subcutaneously into the right-hind foot pad of the mice. The injected dose was 5×10^5 cells/30 μl.
Saline and the chemotherapeutic formulations were administered on days 5, 12 and 19 of the experiment, by injection into the tail vein. All the injected volumes were 0.1 ml. Lithium, at 1 mM, was given in the drinking water continuously throughout the experiment, from the day of tumor inoculation.
35 mice, inoculated with tumor cells, were divides into groups and each group received a different treatment, as described hereinabove and is presented in Table 2 above. The animal survival was monitored continuously, from the first day of tumor inoculation.
FIG. 8 presents the animal survival, expressed in percentages of the total number of animals in the group.

For `COc1cccc2c1C(=O)c1c(O)c3c(c(O)c1C2=O)C[C@@](O)(C(=O)CO)C[C@@H]3O[C@H]1C[C@H](N)[C@H](O)[C@H](C)O1` [F-DOX, doxorubicin], the “fraction of total intracellular drug load diffused out of the cell after 5 minutes” value (C6 cells) was “about 30%” and the “time for complete depletion of the cell from the drug” value (C6 cells) was ≤ 3 h.

For `[Li]` [Lithium], the “in vivo safety of the in vitro dose” value [1] is given as “within the in vivo safe range”.

For `CO[C@@]12[C@H](COC(N)=O)C3=C(C(=O)C(C)=C(N)C3=O)N1C[C@@H]1N[C@@H]12` [Free MMC, Mitomycin C], the “day on which all animals were dead” value (C26 cells; MMC 10 mg/Kg i.v. on days 5, 12, 19) was 33 days and the “day on which animals started dying” value (C26 cells; MMC 10 mg/Kg i.v. on days 5, 12, 19, Lithium 1 mM in drinking water where given) was 29 days.
